Test results published in the NIST ThermoML archive (doi:10.1021/acs.jced.7b00902).

Conditions: Surface laser light scattering (SLLS); for viscosity: Liquid

O=C(C(F)(F)C(F)(F)F)C(F)(C(F)(F)F)C(F)(F)F [dodecafluoro-2-methylpentan-3-one]
Conditions	surface tension liquid-gas [mN/m]	viscosity [mPa·s]
303.16 K	10.09	0.585
313.12 K	9.26	0.4939
313.18 K	9.24	0.5033
323.15 K	8.43	0.4357
333.12 K	7.56	0.3776
343.15 K	6.7	0.329
353.16 K	5.84	0.2907
363.14 K	4.99	0.2569
373.14 K	4.19	0.228
383.13 K	3.44	0.1998
393.15 K	2.71	0.1719
403.17 K	2.02	0.1471
413.18 K	1.37	0.1309
423.15 K	0.78	0.104
433.02 K	0.27	0.0768

FC(F)(F)/C=C/Cl [(E)-1-chloro-3,3,3-trifluoroprop-1-ene]
Conditions	surface tension liquid-gas [mN/m]	viscosity [mPa·s]
303.14 K	13.3	0.2857
313.15 K	12.37	0.2504
323.19 K	10.89	0.2265
333.18 K	9.74	0.2079
343.16 K	8.62	0.1891
353.19 K	7.58	0.1695
363.15 K	6.4	0.1595
373.14 K	5.38	0.1406
373.17 K	5.38	0.1448
383.15 K	4.37	0.1318
393.17 K	3.41	0.1191
403.15 K	2.45	0.1047
